Eleven compounds from patent US4504463A, “Process for making a lyophilized product for use in skeletal imaging” (Mallinckrodt, Inc., priority 1982, dated 1985) can be followed below.

The nature of this assay: Skeletal imaging with scintillation camera after intravenous injection. In kind it is in vivo, adult human. To be noted: for results when used instead of the disodium salt of HMDP: carrier replaced in Example I kit; for results when used instead of AMDP: carrier replaced in Example II kit. The protocol:
An imaging agent is prepared using this kit by adding about 5 ml of a pertechnetate-Tc99m physiological saline with an activity of about 75 mCi, from a commercial technetium source. The vial is agitated until the kit components are dissolved. About 1 ml of the agent is slowly injected, over a period of about 30 seconds, into an adult human subject weighing about 75 kg.

`CC(O)(P(=O)(O)O)P(=O)(O)O` [EHDP, ethane-1-hydroxy-1,1-diphosphonic acid]: the “results when used instead of the disodium salt of HMDP” value (“results when used instead … of HMDP” for short) was “substantially similar results”.

In the case of `O=P(O)(O)C(O)P(=O)(O)O` [HMDP, methanehydroxydiphosphonic acid], the “results when used instead … of HMDP” value is recorded as “substantially similar results”.

Turning to `O=P(O)(O)CP(=O)(O)O` [MDP, methanediphosphonic acid], the “results when used instead … of HMDP” value is listed as “substantially similar results”.

On to `NCC(O)(P(=O)(O)O)P(=O)(O)O` [ethane-1-hydroxy-2-amino-1,1-diphosphonic acid], for which the “results when used instead of AMDP” value is “substantially similar results”.

Regarding `OCc1cc(O)ccc1O` [gentisyl alcohol], the “results when used instead of gentisic acid” value (stabilizer replaced in Example I kit) is listed as “substantially similar results”.

As to `Oc1ccc(O)cc1` [hydroquinone], for the setting “in vivo”, the “results when used instead of gentisic acid” value is “substantially similar results”.

Take `CN(C)C(P(=O)(O)O)P(=O)(O)O` [methane-N,N-dimethylaminodiphosphonic acid]: the “results when used instead of AMDP” value is on record as “substantially similar results”.

With `CNC(P(=O)(O)O)P(=O)(O)O` [methane-N-methylaminodiphosphonic acid], the “results when used instead of AMDP” value was “substantially similar results”.

Turning to `NC(O)(P(=O)(O)O)P(=O)(O)O` [methaneaminohydroxydiphosphonic acid], the “results when used instead of AMDP” value was “substantially similar results”.

As to `O=S(=O)([O-])[O-].[Sn+2]` [stannous sulfate], the “results when used with or instead of stannous chloride” value (reductant replaced or added in Example II kit) was “substantially similar results”.

As to stannous fluoride, where the note is “in vivo”, the “results when used with or instead of stannous chloride” value is “substantially similar results”.
